Reference: ChEMBL document CHEMBL1157695, “Identification of a novel ligand binding motif in the transthyretin channel” (Bioorg Med Chem, 2010)
Active and inactive are the calls of the source. No cut-off for these calls is given here.

What was measured:
[1] = Binding affinity to human recombinant TTR T119M mutant denominated hormone binding site expressed in Escherichia coli assessed as dissociation constant for first ligand binding event by isothermal direct titrimetric assay
[2] = Binding affinity to human recombinant TTR T119M mutant denominated hormone binding site expressed in Escherichia coli assessed as dissociation constant for second ligand binding event by isothermal direct titrimetric assay
[3] = Binding affinity to human recombinant TTR T119M mutant denominated hormone binding site expressed in Escherichia coli by isothermal direct titrimetric assay
[4] = target: Transthyretin (Homo sapiens) (UniProt P02766); assay: Binding affinity to wild type human TTR denominated hormone binding site expressed in Escherichia coli at 10 uM by fluorescence anisotropy
[5] = tested on: Transthyretin (Homo sapiens), P02766 [V50M]; assay: Binding affinity to human recombinant TTR V30M mutant denominated hormone binding site expressed in Escherichia coli at 10 uM by fluorescence anisotropy
Homo sapiens [6] = organism: Homo sapiens; assay: Binding affinity to human recombinant TTR T119M mutant denominated hormone binding site expressed in Escherichia coli at 10 uM by fluorescence anisotropy
[7] = target: Transthyretin (Homo sapiens) (UniProt P02766); assay: Inhibition of wild type human TTR aggregation expressed in Escherichia coli assessed as fibril formation at 20 uM after 72 hrs relative by spectrofluorimetry; design: scale not given: the % may be the effect or the level left
Transthyretin = Transthyretin (Homo sapiens, UniProt P02766, V50M); assay: Binding affinity to human recombinant TTR V30M mutant denominated hormone binding site expressed in Escherichia coli by FRET analysis
[8] = Binding affinity to human recombinant TTR T119M mutant denominated hormone binding site expressed in Escherichia coli by FRET analysis
[9] = target: Transthyretin (Homo sapiens) (UniProt P02766); assay: Binding affinity to wild type human TTR denominated hormone binding site expressed in Escherichia coli at 100 nM by fluorescence anisotropy
[10] = tested on: Transthyretin (Homo sapiens), P02766 [V50M]; assay: Binding affinity to human recombinant TTR V30M mutant denominated hormone binding site expressed in Escherichia coli at 100 nM by fluorescence anisotropy
Homo sapiens [11] = organism: Homo sapiens; assay: Binding affinity to human recombinant TTR T119M mutant denominated hormone binding site expressed in Escherichia coli at 100 nM by fluorescence anisotropy

O=S(=O)(O)c1cccc2cccc(Nc3ccccc3)c12 showed a Kd [1] of 3.2 µM, a Kd [2] of 6.7 µM and a Kd [3] of 4.5 µM. The Activity [4] was “Active”, the Activity [5] was “Active” and the Activity (Homo sapiens [6]) was “Active”. The Activity [7] was 44%.

In the case of Nc1cccc2c(S(=O)(=O)O)cccc12, the Kd (Transthyretin) is reported as 86 µM, the Kd [8] is reported as 93 µM and the Activity [9] is reported as “Active”. For the same compound, the Activity [10] was “Active”, the Activity (Homo sapiens [11]) was “Active” and the Activity [7] was 100%.

O=C(O)Cc1ccccc1Nc1c(Cl)cccc1Cl showed an Activity [7] of 33%.
